Experimental data taken from patent US20220143183A1, “PHOTOSWITCHABLE PROTACS AND SYNTHESIS AND USES THEREOF” (New York University, priority 2019, published 2022).

Tests used:
Format in all cases: cell-based
[1] = molecular target: T1, BRD2 (Homo sapiens, UniProt P25440); test: Western blot of BRD2 levels in RS4;11 cells
T1 construct: endogenous in cells; host or cells: RS4;11 (ATCC CRL-1873)
Description: (§1) Next, the light dependence of targeted protein degradation was analyzed in RS4;11 cells by western blot analysis of the BET proteins BRD2-4 (FIG. 5). To this end, cells were treated with increasing concentrations of our lead compound, PHOTAC-I-3, for 4 h and pulse-irradiated with 390 nm light (100 ms every 10 s). […] The cereblon-dependent degradation was confirmed by a competition experiment (FIG. 5E), and further validated by siRNA knockdown of cereblon (FIG. 13).
One of the principal advantages of photoswitches over caged compounds is their reversibility.
(§2) Cells were incubated with different concentrations of selected compounds. They were placed in a light-proof box and preirradiated for 1 min at 390 nm followed by 100 ms pulses every 10 s or were kept in the dark for 4 h.
(§3) Cultured cells were collected by centrifugation and washed twice with cold PBS. The supernatant was removed and each cell pellet was lysed in 100 μL NP40-Cell-Lysis Buffer+0.1% SDS+1 mM PMSF+ protease inhibitor cocktail (Sigma Aldrich) for 30 min on ice, with vortexing at 10-minute intervals. Afterwards, cells were centrifuged at 13.000 rpm for 10 min at 4° C. Samples were stored on ice and the supernatant was collected for protein concentration determination using a Thermofisher Scientific Pierce™ Coomassie Plus (Bradford) Assay Kit.
The samples were diluted each with 5 μL Laemmli sample buffer Invitrogen (NuPAGE LDS Sample Buffer 4×) and 1 μL DTT, heated at 95° C. for 5 min. Respectively 20 μL of each sample was loaded in a lane of a Bio-Rad Mini-PROTEAN TGX precast Gel, 4-20%, used with tris-glycine SDS Running buffer. The gel ran 5 min at 50 V, then 35 min at 140 V. Next step was the electrotransfer to a polyvinylidene difluoride (PVDF) membrane which was carried out using an iBlot™ 2 Dry Blotting System set to the standard program. After the transfer, the membrane was washed with 25 mL TB ST for 5 min and subsequent incubated in 25 mL of blocking buffer (1×TBST+5% nonfat dry milk, Blotto, Santa Cruz Biotechnology) for 1 h at room temperature. […]

[2] = molecular target: T2, BRD4 (Homo sapiens, UniProt O60885); test: Western blot of BRD4 levels in RS4;11 cells; design: endogenous in cells; host or cells: RS4;11 (ATCC CRL-1873)
Description: as §1
Western Immunoblot Analysis. Rabbit monoclonal Antibodies for BRD4 (#13440), β-Actin (#4970) c-Myc (#5605) and Anti-rabbit IgG, HRP-linked Antibody (#7074) were purchased from Cell Signalling Technologies.
as §2, §3
The samples were diluted each with 5 μL Laemmli sample buffer Invitrogen (NuPAGE LDS Sample Buffer 4×) and 1 μL DTT, heated at 95° C. for 5 min. Respectively 20 μL of each sample was loaded in a lane of a Bio-Rad Mini-PROTEAN TGX precast Gel, 4-20%, used with tris-glycine SDS Running buffer. The gel ran 5 min at 50 V, then 35 min at 140 V. Next step was the electrotransfer to a polyvinylidene difluoride (PVDF) membrane which was carried out using an iBlot™ 2 Dry Blotting System set to the standard program. After the transfer, the membrane was washed with 25 mL TB ST for 5 min and subsequent incubated in 25 mL of blocking buffer (1×TBST+5% nonfat dry milk, Blotto, Santa Cruz Biotechnology) for 1 h at room temperature. The membrane was washed three times for 5 min each with 15 mL of TBST and incubated in a 10 mL antibody dilution buffer with gentle agitation at 4° C. overnight (Actin: 1:1000; c-MYC: 1:1000; BRD4: 1:1000). The next day, the membrane was washed again three times for 5 min each with 15 mL TBST, followed by incubation with anti-rabbit, HRP-linked antibody (1:2000) in 10 mL blocking buffer with gentle agitation for 1 h at room temperature. Afterwards, the membrane was washed three times for 5 min each with 15 mL TBST and then incubated in 10 mL of Clarity Max Western ECL Substrate solution for 5 min. Chemoluminescence imaging was performed on a Bio-Rad ChemiDoc™ Imaging System.
LED illumination. For illumination of the cells we used the cell disco system as previously described in the literature^[25]. 390 nm 5 mm LEDs were purchased from Roithner Lasertechnik. Cells were preirradiated for 1 min at 390 nm, followed by 100 ms pulses every 10 s in 96- or 6-well plates.

[3] = molecular target: T2, BRD4; test: Immunoblot of BRD4 degradation in MB-MDA-468 cells; design: Immunoblot analysis after treatment of MB-MDA-231 cells with PHOTAC-I-3 for 18 h at different concentrations; endogenous in cells; host or cells: MB-MDA-231 (A10) and MB-MDA-468 (A11) (so in the source); conditions: 18 h, 390 nm pulses vs dark
Description: FIG. 10 depicts an immunoblot analysis of PHOTAC-I-3 A) Immunoblot analysis after treatment of MB-MDA-231 cells with PHOTAC-I-3 for 18 h at different concentrations. Cells were either irradiated with 100 ms pulses of 390 nm light every 10 s (left) or kept the dark (right). B) Immunoblot analysis after treatment of MB-MDA-468 cells with PHOTAC-I-3 for 18 h at different concentrations. Cells were either irradiated with 100 ms pulses of 390 nm light every 10 s (left) or kept the dark (right). (MWM, molecular weight marker). C) Immunoblot of BRD4 degradation in RS4;11 cells, promoted by PHOTAC-I-3 (300 nM) after 1 minute of irradiation (100 ms every 10 s), highlighting sustained degradation at the applied dosage.
Photoactivatable degraders and inhibitors of BRD4, c-MYC levels were also affected.

T1 sequence (P25440 whole entry): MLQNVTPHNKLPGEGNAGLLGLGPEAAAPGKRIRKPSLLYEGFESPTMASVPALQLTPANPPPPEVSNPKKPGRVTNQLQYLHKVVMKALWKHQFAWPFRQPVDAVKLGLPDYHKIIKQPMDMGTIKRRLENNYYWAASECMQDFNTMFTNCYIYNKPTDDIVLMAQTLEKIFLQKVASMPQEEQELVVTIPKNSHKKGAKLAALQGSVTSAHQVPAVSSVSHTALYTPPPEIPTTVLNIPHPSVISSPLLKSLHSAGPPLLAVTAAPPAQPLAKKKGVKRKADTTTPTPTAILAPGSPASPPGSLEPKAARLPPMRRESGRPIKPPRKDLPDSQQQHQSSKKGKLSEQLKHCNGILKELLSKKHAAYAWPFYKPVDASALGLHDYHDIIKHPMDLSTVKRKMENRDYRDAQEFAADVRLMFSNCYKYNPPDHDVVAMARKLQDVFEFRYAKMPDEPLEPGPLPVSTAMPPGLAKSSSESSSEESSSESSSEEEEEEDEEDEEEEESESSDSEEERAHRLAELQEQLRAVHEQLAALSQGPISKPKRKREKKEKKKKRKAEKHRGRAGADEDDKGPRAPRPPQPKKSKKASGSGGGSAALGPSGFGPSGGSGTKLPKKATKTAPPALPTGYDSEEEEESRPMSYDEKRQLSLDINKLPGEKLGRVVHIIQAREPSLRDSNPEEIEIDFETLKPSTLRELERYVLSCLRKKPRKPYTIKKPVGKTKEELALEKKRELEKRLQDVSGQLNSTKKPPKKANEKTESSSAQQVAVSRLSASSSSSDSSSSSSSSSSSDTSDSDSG

COc1cc(/N=N/c2cccc3c2CN(C2CCC(=O)NC2=O)C3=O)cc(OC)c1OCC(=O)NCCCCNC(=O)C[C@@H]1N=C(c2ccc(Cl)cc2)c2c(sc(C)c2C)-n2c(C)nnc21 (stereo partly drawn) [PHOTAC-I-3, 2-((S)-4-(4-chlorophenyl)-2,3,9-trimethyl-6H-thieno[3,2-f][1,2,4]triazolo[4,3-a][1,4]diazepin-6-yl)-N-(4-(2-(4-((E)-(2-(2,6-dioxopiperidin-3-yl)-1-oxoisoindolin-4-yl)diazenyl)-2,6-dimethoxyphenoxy)acetamido)butyl)acetamide]
exposure time after which BRD2 is largely absent ([1]; 1 μM, 390 nm pulse irradiation): 1.5 h
cellular BRD2 levels in rescue experiment ([1]; 1 min 390 nm, then pulse irradiated with 525 nm): initially decreased but, subsequently, recovered faster than when left in the dark
BRD2 degradation ([1]; 4 h, 390 nm, compared with BRD3 and BRD4): degraded to a lesser extent and within a narrower concentration range
time dependence of BRD4 degradation ([2]; 1 μM, 390 nm pulse irradiation, compared with BRD2 and BRD3): degraded more slowly
BRD4 degradation at high concentration (hook effect) ([2]; 10 μM, 4 h, 390 nm): less degradation
BRD4 levels ([2]; 4 h, 390 nm pulses (100 ms every 10 s)): pronounced decrease of BRD4 levels
BRD4 degradation in the dark after brief activation ([2]; activation for 1 min, 300 nM): Persistent degradation of BRD4
BRD4 degradation [3]: light-dependent degradation of BRD4
